This passage reports Kd results from PMC6685981, “Avenanthramide A triggers potent ROS-mediated anti-tumor effects in colorectal cancer by directly targeting DDX3” (Cell Death & Disease, 2019).

The test has as its target T1, DDX3 (Homo sapiens, UniProt O00571).
T1 construct: gene DDX3X; full length, His-tagged DDX3
The test can be described thus: SPR (Biacore T200) with immobilized purified His-DDX3; also malachite green ATPase inhibition at […]. It counts as binding. On the technique in general: In SPR one partner is held on a chip, and binding of the other changes the refractive index at the surface.

T1 sequence (O00571 whole entry): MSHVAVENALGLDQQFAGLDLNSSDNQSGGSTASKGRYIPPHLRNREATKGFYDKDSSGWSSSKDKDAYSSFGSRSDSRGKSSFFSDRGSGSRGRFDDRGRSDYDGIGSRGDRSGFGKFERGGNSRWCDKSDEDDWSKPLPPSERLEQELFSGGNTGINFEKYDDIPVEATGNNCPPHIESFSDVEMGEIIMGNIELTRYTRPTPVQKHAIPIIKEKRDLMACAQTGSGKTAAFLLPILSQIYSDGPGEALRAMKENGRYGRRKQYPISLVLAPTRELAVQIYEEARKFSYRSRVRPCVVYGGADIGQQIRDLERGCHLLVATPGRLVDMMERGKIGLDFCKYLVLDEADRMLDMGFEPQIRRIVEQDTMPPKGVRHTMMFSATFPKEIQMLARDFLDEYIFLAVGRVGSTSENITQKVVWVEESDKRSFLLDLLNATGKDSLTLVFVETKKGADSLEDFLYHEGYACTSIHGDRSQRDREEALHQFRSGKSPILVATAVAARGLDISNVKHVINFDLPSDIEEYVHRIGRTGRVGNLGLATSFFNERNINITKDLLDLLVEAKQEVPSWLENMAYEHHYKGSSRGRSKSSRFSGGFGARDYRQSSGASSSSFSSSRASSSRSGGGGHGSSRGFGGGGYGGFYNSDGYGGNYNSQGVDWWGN

As usually defined, the Kd is a measure of binding affinity in units of concentration. Higher therefore signals weaker binding. Regarding `O=C(/C=C/c1ccc(O)cc1)Nc1ccc(O)cc1C(=O)O` [AVN A, Avenanthramide A], the Kd was found to be 8.8 µM.
